{"source": "paper PMC4736156", "about": "(Drug delivery and translational research, 2016)", "key": {"[1]": {"details": "in serum; ref [16]; cited from earlier work"}, "[2]": {"test_system": "HIV", "details": "tenofovir gel formulation, vaginal mucosa, CAPRISA 004; ref [4],[5]; cited from earlier work"}, "[3]": {"test": "Penetration and retention in mouse colorectal mucosa after rectal dosing", "format": "in vivo", "details": "mice, rectal 200 µl of 30 µM; at 2 h and 1 d; result in words"}, "[4]": {"target": "recombinant HIV-1 PR (Human immunodeficiency virus type 1 group M subtype B, UniProt P04585)", "test": "FRET-based HIV-1 PR inhibition assay", "format": "biochemical", "details": "FRET substrate 5.0 µM, HIV-1 PR 35.2 nM, 37 °C, mean ± s.d., n = 3"}, "[5]": {"test_system": "MT-2 cells"}, "[6]": {"details": "in vivo; cited from earlier work"}}, "note": "“And” between values parts separate entries of the source, which are not always exact repeats. Equal values may be shown once. Where a name gives a salt, the structure may show the parent alone.", "data": [{"compound": "CC(C)OC(=O)OCOP(=O)(CO[C@H](C)Cn1cnc2c(N)ncnc21)OCOC(=O)OC(C)C", "note": "[TDF, tenofovir disoproxil fumarate]", "values": [{"measurement": "half-life", "setting": "[1]", "result": "about 17 hours"}]}, {"compound": "C[C@H](Cn1cnc2c(N)ncnc21)OCP(=O)(O)O", "note": "[tenofovir]", "values": [{"measurement": "effectiveness in preventing HIV transmission", "setting": "[2]", "result": 39, "unit": "%"}]}, {"compound": "fluoresceine thiourea [FTU]", "values": [{"measurement": "mucosal tissue concentration", "setting": "[3]", "result": "negligible"}]}, {"compound": "CC(C)CN(C[C@@H](O)[C@H](Cc1ccccc1)NC(=O)O[C@H]1CCOC1)S(=O)(=O)c1ccc(N)cc1", "note": "[APV, amprenavir]", "values": [{"measurement": "rate constant kobs of FRET substrate cleavage (slope of ln(F∞ – Ft) vs time)", "setting": "[4]; 1.0 µM APV", "result": "−0.1638 (± 0.0080) min^−1 and −0.1638 (± 0.007995) min^−1"}, {"measurement": "rate constant kobs of FRET substrate cleavage (slope of ln(F∞ – Ft) vs time)", "setting": "[4]; 2.0 µM APV", "result": "−0.0890 (± 0.0049) min^−1 and −0.0890 (± 0.004938) min^−1"}, {"measurement": "rate constant kobs of FRET substrate cleavage (slope of ln(F∞ – Ft) vs time)", "setting": "[4]; 5.0 µM APV", "result": "−0.03766 (± 0.0019) min^−1 and −0.03766 (± 0.00191) min^−1"}, {"measurement": "cell viability compared to untreated cells", "setting": "[5]", "result": "no statistical difference in comparison to untreated cells"}]}, {"compound": "CC(Cn1cnc2c(N)ncnc21)OCP(=O)(O)OP(=O)(O)OP(=O)(O)O", "note": "(stereo in doubt) [tenofovir diphosphate]", "values": [{"measurement": "vaginal concentrations in tissue after daily gel administration", "setting": "[6]", "result": "about 1000 fmol/mg"}]}]}
